Measured values taken from patent US12617797B2, “Substituted pyrazolo [1,5-a]pyrimidines having multimodal activity against pain” (ESTEVE PHARMACEUTICALS, S.A., priority 2020, dated 2026).

What was measured:
[1] = biological target: T1, Human σ1 receptor (Homo sapiens, UniProt Q99720); test: Human σ1 receptor radioligand assay ([3H](+)-pentazocine binding, transfected HEK-293 membranes); details: binding to σ1 receptor expressed as Ki; + also covers inhibition between 1% and 50%; read-out: σ-1 binding
T1 construct: expressed in transfected cells; host or cells: HEK-293
Summary of the method: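 Membranes (7 μg) were incubated with 5 nM [3H](+)-pentazocine in 50 mM Tris-HCl pH 8 for 120 min at 37° C. Non-specific binding was defined with 10 μM haloperidol. Values are % inhibition at 1 or 10 μM or Ki from five concentrations, read by filtration and scintillation counting.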

[2] = biological target: Human α2δ-1 subunit of Cav2.2 calcium channel (Homo sapiens, UniProt P54289); test: Human α2δ-1 subunit of Cav2.2 calcium channel assay ([3H]-gabapentin binding); details: binding to the α2δ-1 subunit of voltage-gated calcium channels expressed as Ki; + also covers inhibition between 1% and 50%
Summary of the method: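 Membranes enriched in human α2δ-1 incubated with 15 nM [3H]-gabapentin in 10 mM Hepes-KOH pH 7.4, 60 min at 27 °C; nonspecific binding defined with 10 μM pregabalin. Filtration and scintillation counting; % inhibition at 1 or 10 μM, or Ki from five concentrations.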

T1 sequence (Q99720 whole entry): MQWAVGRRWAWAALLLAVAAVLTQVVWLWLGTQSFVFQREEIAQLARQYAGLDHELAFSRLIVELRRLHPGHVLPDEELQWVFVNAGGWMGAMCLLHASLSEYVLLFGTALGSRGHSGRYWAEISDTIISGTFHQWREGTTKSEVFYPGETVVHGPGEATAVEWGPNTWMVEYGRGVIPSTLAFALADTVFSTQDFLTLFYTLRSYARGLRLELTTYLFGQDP
Human α2δ-1 subunit of Cav2.2 calcium channel, sequence (P54289 25-1103): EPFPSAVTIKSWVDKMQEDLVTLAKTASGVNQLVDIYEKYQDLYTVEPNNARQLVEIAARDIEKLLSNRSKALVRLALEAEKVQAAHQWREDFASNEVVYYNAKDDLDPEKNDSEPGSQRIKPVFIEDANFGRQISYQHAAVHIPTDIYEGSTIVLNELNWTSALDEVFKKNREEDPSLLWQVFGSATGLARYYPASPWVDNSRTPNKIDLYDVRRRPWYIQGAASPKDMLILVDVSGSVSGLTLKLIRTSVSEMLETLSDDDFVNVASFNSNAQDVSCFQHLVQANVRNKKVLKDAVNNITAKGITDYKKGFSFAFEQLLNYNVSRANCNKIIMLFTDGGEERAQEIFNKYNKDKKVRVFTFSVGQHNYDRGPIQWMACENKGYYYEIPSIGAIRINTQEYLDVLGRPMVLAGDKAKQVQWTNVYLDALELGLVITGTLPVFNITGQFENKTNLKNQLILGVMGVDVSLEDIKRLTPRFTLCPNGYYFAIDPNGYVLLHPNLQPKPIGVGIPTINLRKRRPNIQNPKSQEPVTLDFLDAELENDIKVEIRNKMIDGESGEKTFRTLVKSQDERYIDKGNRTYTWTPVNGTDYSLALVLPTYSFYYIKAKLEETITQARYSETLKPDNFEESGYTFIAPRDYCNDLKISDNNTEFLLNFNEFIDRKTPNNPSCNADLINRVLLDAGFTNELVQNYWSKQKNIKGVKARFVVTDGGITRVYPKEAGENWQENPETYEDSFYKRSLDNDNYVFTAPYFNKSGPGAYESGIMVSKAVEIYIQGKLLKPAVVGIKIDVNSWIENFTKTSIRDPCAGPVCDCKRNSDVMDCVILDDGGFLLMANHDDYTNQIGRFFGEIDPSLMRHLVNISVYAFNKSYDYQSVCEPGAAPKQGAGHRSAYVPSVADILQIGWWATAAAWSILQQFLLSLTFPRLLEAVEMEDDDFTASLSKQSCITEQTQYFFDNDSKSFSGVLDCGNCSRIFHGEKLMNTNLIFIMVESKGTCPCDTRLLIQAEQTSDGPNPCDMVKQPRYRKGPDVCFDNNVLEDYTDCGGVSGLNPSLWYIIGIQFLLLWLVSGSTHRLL

Row | SMILES | Ki [1] [nM] | Ki [2] [nM]
1 | Cc1nn2c(C3CCCN(Cc4ccc(Cl)cc4)C3)ccnc2c1-c1ccnc(CO)c1 (centres unmarked) [Example 134, (4-(7-(1-(4-Chlorobenzyl)piperidin-3-yl)-2-methylpyrazolo[1,5-a]pyrimidin-3-yl)pyridin-2-yl)methanol] | 500 to 1000 | > 5000
2 | Cc1nn2c(C3CCCN(Cc4ccc(Cl)cc4)C3)ccnc2c1-c1ccc(CO)nc1 (centres unmarked) [Example 135, (5-(7-(1-(4-Chlorobenzyl)piperidin-3-yl)-2-methylpyrazolo[1,5-a]pyrimidin-3-yl)pyridin-2-yl)methanol] | > 1000 | > 5000
3 | CCOc1cc(-c2c(C)nn3c(C4CCCN(Cc5ccc(Cl)cc5)C4)ccnc23)ccn1 (centres unmarked) [Example 136, 7-(1-(4-Chlorobenzyl)piperidin-3-yl)-3-(2-ethoxypyridin-4-yl)-2-methylpyrazolo[1,5-a]pyrimidine] | > 1000 | > 5000
4 | Cc1nn2c(C3CCCN(Cc4ccc(Cl)cc4)C3)ccnc2c1-c1ccnc(OCC2CC2)c1 (centres unmarked) [Example 137, 7-(1-(4-Chlorobenzyl)piperidin-3-yl)-3-(2-(cyclopropylmethoxy)pyridin-4-yl)-2-methylpyrazolo[1,5-a]pyrimidine] | > 1000 | > 5000
5 | Cc1nn2c(C3CCCN(Cc4ccc(Cl)cc4)C3)ccnc2c1-c1cncn1C (centres unmarked) [Example 138, 7-(1-(4-Chlorobenzyl)piperidin-3-yl)-2-methyl-3-(1-methyl-1H-imidazol-5-yl)pyrazolo[1,5-a]pyrimidine] | > 1000 | > 5000
6 | Cc1nn2c(C3CCCN(Cc4ccc(Cl)cc4)C3)ccnc2c1-c1ccncn1 (centres unmarked) [Example 139, 7-(1-(4-Chlorobenzyl)piperidin-3-yl)-2-methyl-3-(pyrimidin-4-yl)pyrazolo[1,5-a]pyrimidine] | > 1000 | > 5000
7 | Cc1nn2c(C3CCCN(Cc4ccc(Cl)cc4)C3)ccnc2c1-c1ccnc(N)n1 (centres unmarked) [Example 140, 4-(7-(1-(4-Chlorobenzyl)piperidin-3-yl)-2-methylpyrazolo[1,5-a]pyrimidin-3-yl)pyrimidin-2-amine] | > 1000 | 500 to 5000
8 | Cc1nn2c(C3CCCN(Cc4ccc(Cl)cc4)C3)ccnc2c1N(C)C (centres unmarked) [Example 141, 7-(1-(4-Chlorobenzyl)piperidin-3-yl)-N,N,2-trimethylpyrazolo[1,5-a]pyrimidin-3-amine] | < 500 | > 5000
9 | Cc1nn2c(C3CCCN(Cc4ccccc4)C3)ccnc2c1N(C)C (centres unmarked) [Example 142, 7-(1-Benzylpiperidin-3-yl)-N,N,2-trimethylpyrazolo[1,5-a]pyrimidin-3-amine] | > 1000 | > 5000
10 | Cc1nn2c(C3CCCN(Cc4ccccc4)C3)ccnc2c1N(C)Cc1ccccc1 (centres unmarked) [Example 143, N-Benzyl-7-(1-benzylpiperidin-3-yl)-N,2-dimethylpyrazolo[1,5-a]pyrimidin-3-amine] | 500 to 1000 | > 5000
11 | Cc1nn2c(C3CCCN(Cc4ccc(Cl)cc4)C3)ccnc2c1CNCc1ccccc1 (centres unmarked) [Example 144, N-Benzyl-1-(7-(1-(4-chlorobenzyl)piperidin-3-yl)-2-methylpyrazolo[1,5-a]pyrimidin-3-yl)methanamine] | < 500 | 500 to 5000
12 | Cc1nn2c(C3CCCN(Cc4ccc(Cl)cc4)C3)ccnc2c1CN(C)Cc1ccccc1 (centres unmarked) [Example 145, N-Benzyl-1-(7-(1-(4-chlorobenzyl)piperidin-3-yl)-2-methylpyrazolo[1,5-a]pyrimidin-3-yl)-N-methylmethanamine] | < 500 | 500 to 5000
13 | Cc1nn2c(C3CCCN(Cc4ccc(Cl)cc4)C3)ccnc2c1CNCc1ccc(F)cc1 (centres unmarked) [Example 146, 1-(7-(1-(4-Chlorobenzyl)piperidin-3-yl)-2-methylpyrazolo[1,5-a]pyrimidin-3-yl)-N-(4-fluorobenzyl)methanamine] | < 500 | 500 to 5000
14 | Cc1nn2c(C3CCCN(Cc4ccc(Cl)cc4)C3)ccnc2c1CNCc1ccc(CO)cc1 (centres unmarked) [Example 147, (4-((((7-(1-(4-Chlorobenzyl)piperidin-3-yl)-2-methylpyrazolo[1,5-a]pyrimidin-3-yl)methyl)amino)methyl)phenyl)methanol] | < 500 | > 5000
15 | Cc1nn2c(C3CCCN(Cc4ccc(Cl)cc4)C3)ccnc2c1CNCc1ccncc1 (centres unmarked) [Example 148, 1-(7-(1-(4-Chlorobenzyl)piperidin-3-yl)-2-methylpyrazolo[1,5-a]pyrimidin-3-yl)-N-(pyridin-4-ylmethyl)methanamine] | < 500 | 500 to 5000
16 | Cc1nn2c(C3CCCN(Cc4ccc(Cl)cc4)C3)ccnc2c1CNCc1cccs1 (centres unmarked) [Example 149, 1-(7-(1-(4-Chlorobenzyl)piperidin-3-yl)-2-methylpyrazolo[1,5-a]pyrimidin-3-yl)-N-(thiophen-2-ylmethyl)methanamine] | < 500 | 500 to 5000

Row | SMILES | Ki [1] [nM] | Ki [2] [nM]
17 | Cc1ccc(CNCc2c(C)nn3c(C4CCCN(Cc5ccc(Cl)cc5)C4)ccnc23)s1 (centres unmarked) [Example 150, 1-(7-(1-(4-Chlorobenzyl)piperidin-3-yl)-2-methylpyrazolo[1,5-a]pyrimidin-3-yl)-N-((5-methylthiophen-2-yl)methyl)methanamine] | < 500 | 500 to 5000
18 | Cc1nn2c(C3CCCN(Cc4ccc(Cl)cc4)C3)ccnc2c1CNCc1ccn(C)n1 (centres unmarked) [Example 151, 1-(7-(1-(4-Chlorobenzyl)piperidin-3-yl)-2-methylpyrazolo[1,5-a]pyrimidin-3-yl)-N-((1-methyl-1H-pyrazol-3-yl)methyl)methanamine] | < 500 | 500 to 5000
19 | Cc1nnc(CNCc2c(C)nn3c(C4CCCN(Cc5ccc(Cl)cc5)C4)ccnc23)o1 (centres unmarked) [Example 152, 1-(7-(1-(4-Chlorobenzyl)piperidin-3-yl)-2-methylpyrazolo[1,5-a]pyrimidin-3-yl)-N-((5-methyl-1,3,4-oxadiazol-2-yl)methyl)methanamine] | 500 to 1000 | > 5000
20 | Cc1nn2c(C3CCCN(Cc4ccc(Cl)cc4)C3)ccnc2c1CNCCc1ccccc1 (centres unmarked) [Example 153, N-((7-(1-(4-Chlorobenzyl)piperidin-3-yl)-2-methylpyrazolo[1,5-a]pyrimidin-3-yl)methyl)-2-phenylethan-1-amine] | < 500 | 500 to 5000
21 | COc1ccc(CCNCc2c(C)nn3c(C4CCCN(Cc5ccc(Cl)cc5)C4)ccnc23)cc1 (centres unmarked) [Example 154, N-((7-(1-(4-Chlorobenzyl)piperidin-3-yl)-2-methylpyrazolo[1,5-a]pyrimidin-3-yl)methyl)-2-(4-methoxyphenyl)ethan-1-amine] | 500 to 1000 | 500 to 5000
22 | CCNCc1c(C)nn2c(C3CCCN(Cc4ccc(Cl)cc4)C3)ccnc12 (centres unmarked) [Example 155, N-((7-(1-(4-Chlorobenzyl)piperidin-3-yl)-2-methylpyrazolo[1,5-a]pyrimidin-3-yl)methyl)ethanamine] | < 500 | 500 to 5000
23 | Cc1nn2c(C3CCCN(Cc4ccc(Cl)cc4)C3)ccnc2c1CNCC(F)(F)F (centres unmarked) [Example 156, N-((7-(1-(4-Chlorobenzyl)piperidin-3-yl)-2-methylpyrazolo[1,5-a]pyrimidin-3-yl)methyl)-2,2,2-trifluoroethan-1-amine] | 500 to 1000 | > 5000
24 | Cc1nn2c(C3CCCN(Cc4ccc(Cl)cc4)C3)ccnc2c1CNCC1CC1 (centres unmarked) [Example 157, 1-(7-(1-(4-Chlorobenzyl)piperidin-3-yl)-2-methylpyrazolo[1,5-a]pyrimidin-3-yl)-N-(cyclopropylmethyl)methanamine] | < 500 | 500 to 5000
25 | Cc1nn2c(C3CCCN(Cc4ccc(Cl)cc4)C3)ccnc2c1CNCCO (centres unmarked) [Example 158, 2-(((7-(1-(4-Chlorobenzyl)piperidin-3-yl)-2-methylpyrazolo[1,5-a]pyrimidin-3-yl)methyl)amino)ethan-1-ol] | < 500 | 500 to 5000
26 | Cc1nn2c(C3CCCN(Cc4ccc(Cl)cc4)C3)ccnc2c1CNC(C)C (centres unmarked) [Example 159, N-((7-(1-(4-Chlorobenzyl)piperidin-3-yl)-2-methylpyrazolo[1,5-a]pyrimidin-3-yl)methyl)propan-2-amine] | < 500 | 500 to 5000
27 | Cc1nn2c(C3CCCN(Cc4ccc(Cl)cc4)C3)ccnc2c1CNCC(C)C (centres unmarked) [Example 160, N-((7-(1-(4-Chlorobenzyl)piperidin-3-yl)-2-methylpyrazolo[1,5-a]pyrimidin-3-yl)methyl)-2-methylpropan-1-amine] | < 500 | 500 to 5000
28 | Cc1nn2c(C3CCCN(Cc4ccc(Cl)cc4)C3)ccnc2c1CNCCC(C)C (centres unmarked) [Example 161, N-((7-(1-(4-Chlorobenzyl)piperidin-3-yl)-2-methylpyrazolo[1,5-a]pyrimidin-3-yl)methyl)-3-methylbutan-1-amine] | < 500 | 500 to 5000
29 | Cc1nn2c(C3CCCN(Cc4ccc(Cl)cc4)C3)ccnc2c1CNCCOC(C)C (centres unmarked) [Example 162, N-((7-(1-(4-Chlorobenzyl)piperidin-3-yl)-2-methylpyrazolo[1,5-a]pyrimidin-3-yl)methyl)-2-isopropoxyethan-1-amine] | < 500 | 500 to 5000
30 | COCCCCNCc1c(C)nn2c(C3CCCN(Cc4ccc(Cl)cc4)C3)ccnc12 (centres unmarked) [Example 163, N-((7-(1-(4-Chlorobenzyl)piperidin-3-yl)-2-methylpyrazolo[1,5-a]pyrimidin-3-yl)methyl)-4-methoxybutan-1-amine] | < 500 | < 500
31 | Cc1nn2c(C3CCCN(Cc4ccc(Cl)cc4)C3)ccnc2c1CN1C[C@@H](C)O[C@@H](C)C1 (stereo partly drawn) [Example 164, (2S,6R)-4-((7-(1-(4-Chlorobenzyl)piperidin-3-yl)-2-methylpyrazolo[1,5-a]pyrimidin-3-yl)methyl)-2,6-dimethylmorpholine] | 500 to 1000 | 500 to 5000
